Assay results from patent publication US20040038855A1 (priority 1999, published 2004).
pKi: −log10 of the molar value. Counter-ions that a name gives are not always drawn. Values belong to the compound of their own block, whether it stands above or below them.

How the values were obtained:
[1] = biological target: human MCH1 receptor (Homo sapiens, UniProt Q99705); experiment: Intracellular calcium response to MCH in COS-7 cells transfected with MCH1 (fluo-3, FLIPR): antagonist potency; format: cell-based; design: expressed in transfected cells; host or cells: COS-7; settings: read-out: Kb (nM) hMCH1
From the text: MCH1 antagonist compounds were identified by their ability to inhibit the MCH-elicited response. […]. From the IC50 values, the antagonist potency (Kb)was derived using the Cheng-Prussof correction (Lazareno and Birdsall, 1993). […]

[2] = biological target: T1, human GALR1 receptor (Homo sapiens, UniProt P47211); experiment: Binding affinity at the human GALR1 receptor; settings: Table 3a; read-out: hGALR1 Ki
T1 construct: expressed in transfected cells
T1 sequence (P47211 1-349): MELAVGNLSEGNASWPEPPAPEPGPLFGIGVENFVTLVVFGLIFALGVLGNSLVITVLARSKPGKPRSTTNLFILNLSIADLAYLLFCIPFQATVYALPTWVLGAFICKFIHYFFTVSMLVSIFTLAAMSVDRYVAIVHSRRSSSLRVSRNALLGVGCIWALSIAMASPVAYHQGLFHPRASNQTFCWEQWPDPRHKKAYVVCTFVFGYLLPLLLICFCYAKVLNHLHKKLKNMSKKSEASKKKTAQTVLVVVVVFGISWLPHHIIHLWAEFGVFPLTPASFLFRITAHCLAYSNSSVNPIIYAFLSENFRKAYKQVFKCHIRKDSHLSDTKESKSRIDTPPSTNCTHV
From the text: (§1) The design of such compounds can be optimized by determining their binding affinity at the recombinant MCH1, NPY1, NPY2, Gal1, Gal2, Gal3, and 5HT2C receptors. The methods to obtain the cDNA of the receptor, express said receptors in heterologous systems, and carry out assays to determine binding affinity are described in the following publications: human NPY1 (Larhammar et al., 1992), human NPY5 (U.S. Pat. No. 5,602,024, the disclosure of which is hereby incorporated by reference in its entirety into this application), human Gall (Habert-Ortoli et al., 1994), human Gal2 (Smith et al., 1997), human Gal3 (Smith et al., 1998), and rat 5HT2C (Julius et al., 1988). Additionally, the compounds would optimally not bind at the following receptors due to possible side effects: human H1 histamine and human H2 histamine receptors; human alpha-1A adrenergic, human alpha-1D adrenergic, human alpha-2A adrenergic, human alpha-2B adrenergic, and human alpha-2C adrenergic receptors; human dopamine D1, D2, D3, D4, and D5 receptors; the β-adrenoceptor; and the human 5HT1A, human 5HT1B, human 5HT1D, human 5HT1E, human 5HT1F, human 5HT2A, rat 5HT2C, human 5HT4, human 5HT6, and human 5HT7 receptors.

[3] = biological target: T2, human NPY1 receptor (Homo sapiens, UniProt P25929); experiment: Binding affinity at the human NPY1 receptor; settings: Table 3a; read-out: hMPY1 Ki
T2 construct: expressed in transfected cells
T2 sequence (P25929 1-384): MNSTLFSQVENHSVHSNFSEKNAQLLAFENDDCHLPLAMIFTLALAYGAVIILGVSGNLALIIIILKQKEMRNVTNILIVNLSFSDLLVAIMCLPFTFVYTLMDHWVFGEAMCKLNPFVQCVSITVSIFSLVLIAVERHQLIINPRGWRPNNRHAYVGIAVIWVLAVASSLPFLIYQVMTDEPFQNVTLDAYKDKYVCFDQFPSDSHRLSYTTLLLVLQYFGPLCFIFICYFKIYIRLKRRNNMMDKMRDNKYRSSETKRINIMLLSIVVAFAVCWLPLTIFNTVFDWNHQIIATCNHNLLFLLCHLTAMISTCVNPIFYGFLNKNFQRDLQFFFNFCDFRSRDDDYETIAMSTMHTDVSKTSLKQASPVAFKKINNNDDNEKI
From the text: as §1

[4] = biological target: T3, human GALR3 receptor (Homo sapiens, UniProt O60755); experiment: Binding affinity at the human GALR3 receptor; settings: Table 3a; read-out: hGALR3 Ki
T3 construct: expressed in transfected cells
T3 sequence (O60755 1-368): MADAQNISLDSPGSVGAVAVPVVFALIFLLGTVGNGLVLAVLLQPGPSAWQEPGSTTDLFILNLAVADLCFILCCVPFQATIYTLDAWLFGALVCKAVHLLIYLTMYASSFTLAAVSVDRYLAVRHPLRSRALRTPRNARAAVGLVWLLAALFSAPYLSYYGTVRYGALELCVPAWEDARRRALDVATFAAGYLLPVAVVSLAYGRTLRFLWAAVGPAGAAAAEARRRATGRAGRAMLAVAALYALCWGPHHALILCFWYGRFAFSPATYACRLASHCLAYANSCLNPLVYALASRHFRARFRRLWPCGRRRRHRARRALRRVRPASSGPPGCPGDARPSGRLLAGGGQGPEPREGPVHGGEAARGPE
From the text: as §1

[5] = biological target: T4, human NPY5 receptor (Homo sapiens, UniProt Q15761); experiment: Binding affinity at the human NPY5 receptor; settings: Table 3a; read-out: hNPY5 Ki
T4 construct: expressed in transfected cells
T4 sequence (Q15761 1-445): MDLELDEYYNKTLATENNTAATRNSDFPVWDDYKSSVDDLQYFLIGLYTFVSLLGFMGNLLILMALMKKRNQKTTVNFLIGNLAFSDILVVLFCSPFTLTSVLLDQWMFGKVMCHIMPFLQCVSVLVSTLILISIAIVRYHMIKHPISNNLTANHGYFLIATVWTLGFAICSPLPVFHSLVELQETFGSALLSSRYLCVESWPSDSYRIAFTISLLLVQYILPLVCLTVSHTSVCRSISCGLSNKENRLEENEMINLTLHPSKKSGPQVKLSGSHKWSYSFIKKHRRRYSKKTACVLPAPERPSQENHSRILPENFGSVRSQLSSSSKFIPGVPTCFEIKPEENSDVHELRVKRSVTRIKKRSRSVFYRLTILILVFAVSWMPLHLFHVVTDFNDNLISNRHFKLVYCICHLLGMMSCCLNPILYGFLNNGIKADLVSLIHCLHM
From the text: as §1

[6] = biological target: T5, human GALR2 receptor (Homo sapiens, UniProt O43603); experiment: Binding affinity at the human GALR2 receptor; settings: Table 3a; read-out: hGALR2 Ki
T5 construct: expressed in transfected cells
T5 sequence (O43603 1-387): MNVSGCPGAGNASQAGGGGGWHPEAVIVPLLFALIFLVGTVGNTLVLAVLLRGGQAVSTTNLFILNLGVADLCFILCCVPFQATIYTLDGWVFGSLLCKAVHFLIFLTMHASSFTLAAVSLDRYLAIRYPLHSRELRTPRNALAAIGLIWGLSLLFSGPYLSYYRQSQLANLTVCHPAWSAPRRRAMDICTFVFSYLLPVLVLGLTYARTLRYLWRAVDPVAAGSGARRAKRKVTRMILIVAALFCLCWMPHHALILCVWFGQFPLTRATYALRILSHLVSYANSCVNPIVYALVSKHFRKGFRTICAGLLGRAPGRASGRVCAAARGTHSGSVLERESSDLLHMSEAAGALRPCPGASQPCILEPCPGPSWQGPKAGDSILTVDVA
From the text: as §1

[7] = biological target: T6, rat 5HT2C receptor (Rattus norvegicus, UniProt P08909); experiment: Binding affinity at the rat 5HT2C receptor; settings: Table 3a; read-out: r5HT2C Ki
T6 construct: expressed in transfected cells
T6 sequence (P08909 33-460): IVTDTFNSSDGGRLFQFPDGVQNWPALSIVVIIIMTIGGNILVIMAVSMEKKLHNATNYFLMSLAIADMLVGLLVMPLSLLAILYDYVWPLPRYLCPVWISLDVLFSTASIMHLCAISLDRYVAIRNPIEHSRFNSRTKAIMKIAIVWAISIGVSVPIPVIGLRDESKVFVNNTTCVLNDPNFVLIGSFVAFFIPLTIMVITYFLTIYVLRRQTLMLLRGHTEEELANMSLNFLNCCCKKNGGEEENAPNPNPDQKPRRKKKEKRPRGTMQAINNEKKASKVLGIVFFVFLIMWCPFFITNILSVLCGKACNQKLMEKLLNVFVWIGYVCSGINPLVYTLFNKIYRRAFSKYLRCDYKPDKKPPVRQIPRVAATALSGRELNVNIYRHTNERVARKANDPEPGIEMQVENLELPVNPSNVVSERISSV
From the text: as §1
Other 5HT Receptors: Other serotonin receptor binding assays were performed according to published methods: rat 5HT2C receptor (Julius et al., 1988); and 5HT6 (Monsma, et al., 1993). The binding assays using the 5HT4 receptor were performed according to the procedures described in U.S. Pat. No. 5,766,879, the disclosure of which is hereby incorporated by reference in its entirety into this application.

human MCH1 receptor, sequence (Q99705 whole entry): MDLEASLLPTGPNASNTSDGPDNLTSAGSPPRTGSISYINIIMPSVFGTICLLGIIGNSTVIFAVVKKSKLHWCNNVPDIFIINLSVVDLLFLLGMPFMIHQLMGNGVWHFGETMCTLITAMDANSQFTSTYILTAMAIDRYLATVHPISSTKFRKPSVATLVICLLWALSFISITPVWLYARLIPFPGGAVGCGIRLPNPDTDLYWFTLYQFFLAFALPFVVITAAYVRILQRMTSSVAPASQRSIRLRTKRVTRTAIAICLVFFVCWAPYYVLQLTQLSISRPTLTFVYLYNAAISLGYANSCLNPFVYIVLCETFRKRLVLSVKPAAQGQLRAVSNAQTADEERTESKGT

Structure (SMILES): CCC1=C(C(N)=O)C(c2ccc(F)c(F)c2)N(C(=O)NCCCN2CCC3(CC2)OCc2ccccc23)C(=O)N1 (single isomer, unassigned; (+)) [Example 22, (+)-1,2,3,6-TETRAHYDRO-1-{N-[4-(BENZO-4′,5′(H)FURAN)PIPERIDIN-1-YL]PROPYL}CARBOXAMIDO-4-ETHYL-6-(3,4-DIFLUOROPHENYL)-2-OXO-PYRIMIDINE-5-CARBOXAMIDE HYDROCHLORIDE]
Kb [1]: 40 nM

Structure (SMILES): COCC1=C(C(=O)OC)C(c2ccc(F)c(F)c2)N(C(=O)NCCCN2CCC(C)(c3ccccc3)CC2)C(=O)N1 (single isomer, unassigned; (+)) [Example 36, (+)-1,2,3,6-TETRAHYDRO-5-METHOXYCARBONYL-4-METHOXYMETHYL-2-OXO-1-{N-[3-(4-METHYL-4-PHENYL PIPERIDINE-1-YL]PROPYL}-6-(3,4-DIFLUOROPHENYL) PYRIMIDINE]
Kb [1]: 406 nM

Structure (SMILES): Fc1ccc(C(c2ccc(F)cc2)N2CCN(C/C=C/c3ccccc3)CC2)cc1 [Example 26, 1-[BIS(4-FLUOROPHENYL)METHYL]-4-(3-PHENYL-2-PROPENYL)PIPERAZINE]
pKi [2]: < 4.30
pKi [3]: < 4.30
pKi [4]: < 4.30
pKi [5]: < 4.30
pKi [6]: < 4.30

Structure (SMILES): Cc1cc(O)cc(O)c1/C=N/c1ccc(-c2cn3ccccc3n2)cc1 [Example 27]
pKi [7]: < 4.30
pKi [2]: < 4.30
pKi [3]: < 4.30
pKi [4]: < 4.30
pKi [5]: < 4.30
pKi [6]: < 4.30

Structure (SMILES): CN1CN(c2ccccc2)C2(CCN(CCCC(=O)c3ccc(F)cc3)CC2)C1=O [Example 30, N-METHYL-8-[4-(4-FLUOROPHENYL)-4-OXOBUTYL]-1-PHENYL-1,3,8-TRI-[4.5]DECAN-4-ONE]
pKi [7]: 5.05
pKi [2]: < 4.30
pKi [3]: < 4.30
pKi [4]: < 4.30
pKi [5]: < 4.30
pKi [6]: < 4.30

Next, values leading:

Kb [1]: 41 nM
Structure (SMILES): CCn1c(=O)n(C2CCN(CCCNC(=O)N3C(=O)NC(C)=C(C(=O)OC)C3c3ccc(F)c(F)c3)CC2)c2ccccc21 (single isomer, unassigned; (+)) [Example 7, (+)-1,2,3,6-TETRAHYDRO-1-{N-[4-(N′-ETHYL)-N-BENZIMIDAZOLYL-PIPERIDIN-1YL]PROPYL}CARBOXAMIDO-4-METHYL-6-(3,4-DIFLUOROPHENYL)-2-OXOPYRIMIDINE HYDROCHLORIDE]

Kb [1]: 29 nM
Structure (SMILES): CC(=O)C1=C(C)NC(=O)N(C(=O)NCCCN2CCC(c3ccc(F)cc3)CC2)C1c1cc(F)c(F)c(F)c1 (single isomer, unassigned; (+)) [Example 12, (+)-1,2,3,6-TETRA HYDRO-1-{N-[4-(4-FLUOROPHENYL)-PIPERIDINE-1-YL]-PROPYL]CARBOXAMIDO-5-ACETYL-2-OXO-6-(3,4,5-TRI FLUORO PHENYL)-4-METHYL PYRIMIDINE HYDROCHLORIDE]

Kb [1]: 289 nM
Structure (SMILES): COCC1=C(C(=O)OC)C(c2ccc(F)c(F)c2)N(C(=O)NCCCN2CCC(c3cc(F)ccc3OC)CC2)C(=O)N1 (single isomer, unassigned; (+)) [Example 15]

Kb [1]: 373 nM
Structure (SMILES): COCC1=C(C(=O)OC)C(c2ccc(F)c(F)c2)N(C(=O)NCCCN2CCC(c3ccccn3)CC2)C(=O)N1 (single isomer, unassigned; (+)) [Example 17, (+)-6-(3,4-DIFLUOROPHENYL)-1-{N-[4-(2-PYRIDYL)PIPERIDIN-1-YL]-PROPYL}CARBOXAMIDO-5-METHOXYCARBONYL-4-METHOXYMETHYL-2-OXO-1,2,3,6-TETRAHYDROPYRIMIDINE DIHYDROCHLORIDE]

Kb [1]: 12 nM
Structure (SMILES): COCC1=C(C(=O)OC)C(c2ccc(F)c(F)c2)N(C(=O)NCCCN2CCC(c3cc(F)c(F)c(F)c3)CC2)C(=O)N1 (single isomer, unassigned; (+)) [Example 33, (+)-1,2,3,6-TETRAHYDRO-1-{N-[4-(3,4,5-TRIFLUORO)-PHENYL-PIPERIDIN-1-YL]PROPYL}CARBOXAMIDO-4-METHOXYMETHYL-6-(3,4-DIFLUOROPHENYL)-2-OXOPYRIMIDINE-5-CARBOXYLIC ACID METHYL ESTER]

Kb [1]: 68 nM
Structure (SMILES): COC(=O)C1=C(C)NC(=O)N(C(=O)NCCCN2CCC3(CC2)C(=O)CCc2ccccc23)C1c1ccc2nonc2c1 (centres unmarked) [Example 23, HYDROCHLORIDE]

Kb [1]: 102 nM
Structure (SMILES): COC(=O)C1=C(C)NC(=O)N(C(=O)NCCCN2CCC3(CC2)C(=O)CCc2ccccc23)C1c1ccc(F)c(F)c1 (centres unmarked) [Example 24]
